The structures appear in SMILES notation. Peptide text beside a SMILES is read from it. * marks the point of attachment. X2 = O=C(O)c1cc(NC(=S)*)ccc1-c1c2ccc(=O)cc-2oc2cc(O)ccc12; X1 = O=Cc1ccc(C(=O)*)cc1

This test concerns the target T1, Type-1 angiotensin II receptor (Oryctolagus cuniculus) (UniProt P34976).
T1 sequence (whole entry): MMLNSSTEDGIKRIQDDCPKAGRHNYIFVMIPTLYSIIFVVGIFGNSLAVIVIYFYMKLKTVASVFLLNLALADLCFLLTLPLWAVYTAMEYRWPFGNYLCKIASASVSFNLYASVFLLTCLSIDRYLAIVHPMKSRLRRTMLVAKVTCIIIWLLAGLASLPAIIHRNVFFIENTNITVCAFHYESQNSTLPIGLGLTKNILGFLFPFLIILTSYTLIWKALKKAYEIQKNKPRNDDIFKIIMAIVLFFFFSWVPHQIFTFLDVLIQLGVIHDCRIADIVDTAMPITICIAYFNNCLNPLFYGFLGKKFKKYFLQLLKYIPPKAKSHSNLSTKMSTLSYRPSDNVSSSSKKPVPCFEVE
Description: Relative binding affinity of the compound assessed as ratio of [Asp1,Ile5]angiotensin II ED50 to compound ED50 for angiotensin 2 receptor in rabbit aortic strips.
Consider `CC[C@H](C)[C@H](NC(=O)[C@H](Cc1ccc(O)cc1)NC(=O)[C@@H](NC(=O)[C@H](CCCNC(=N)N)NC(=O)[C@H](CC(=O)O)N1C=C(c2ccccc2)C(=O)C1(O)c1ccccc1)C(C)C)C(=O)N[C@@H](Cc1cnc[nH]1)C(=O)N1CCC[C@H]1C(=O)N[C@@H](Cc1ccccc1)C(=O)O` (some centres not stated), for which the relative binding affinity (RBA) was found to be 3.

Consider `CC(C)[C@H](NC(=O)[C@H](CCCNC(=N)N)NC(=O)[C@H](CC(N)=O)NC(=S)Nc1ccc(-c2c3ccc(=O)cc-3oc3cc(O)ccc23)c(C(=O)O)c1)C(=O)N[C@@H](Cc1ccc(O)cc1)C(=O)N[C@H](C(=O)N[C@@H](Cc1cnc[nH]1)C(=O)N1CCC[C@H]1C(=O)N[C@@H](Cc1ccccc1)C(=O)O)C(C)C` (X2-NRVYVHPF-OH), for which the relative binding affinity (RBA) turned out to be 1. On to `CCCC[C@H](NC(=O)c1cc(N=[N+]=[N-])ccc1[N+](=O)[O-])C(=O)N[C@@H](CC(=O)O)C(=O)N[C@@H](CCCNC(=N)N)C(=O)N[C@H](C(=O)N[C@@H](Cc1ccc(O)cc1)C(=O)N[C@H](C(=O)N[C@@H](Cc1cnc[nH]1)C(=O)N1CCC[C@H]1C(=O)N[C@@H](Cc1ccccc1)C(=O)O)[C@@H](C)CC)C(C)C`, for which the relative binding affinity (RBA) came to 0.5. The figure for `CC[C@H](C)[C@H](NC(=O)[C@H](Cc1ccc(O)cc1)NC(=O)[C@@H](N)C(C)C)C(=O)N[C@@H](Cc1cnc[nH]1)C(=O)N1CCC[C@H]1C(=O)N[C@@H](Cc1ccccc1)C(=O)O` is 0.03; for `CC(C)[C@H](NC(=O)[C@H](CCCNC(=N)N)NC(=O)[C@@H](N)CC(N)=O)C(=O)N[C@@H](Cc1ccc(O)cc1)C(=O)N[C@H](C(=O)N[C@@H](Cc1c[nH]cn1)C(=O)N1CCC[C@H]1C(=O)N[C@@H](Cc1ccccc1)C(=O)O)C(C)C` (H-NRVYVHPF-OH) it is 23; for `CC(C)[C@H](NC(=O)[C@H](CCCNC(=N)N)NC(=O)[C@H](CC(N)=O)NC(=O)c1ccc(C=O)cc1)C(=O)N[C@@H](Cc1ccc(O)cc1)C(=O)N[C@H](C(=O)N[C@@H](Cc1cnc[nH]1)C(=O)N1CCC[C@H]1C(=O)N[C@@H](Cc1ccccc1)C(=O)O)C(C)C` (X1-NRVYVHPF-OH) it is 8. The same measure for `CC[C@H](C)[C@H](NC(=O)[C@H](Cc1ccc(O)cc1)NC(=O)[C@@H](NC(=O)[C@@H](N)CCCN=C(N)N)C(C)C)C(=O)N[C@@H](Cc1c[nH]cn1)C(=O)N1CCC[C@H]1C(=O)N[C@@H](Cc1ccccc1)C(=O)O`: 2.

For the origin of these results see ChEMBL document CHEMBL3272218, “Biologically active derivatives of angiotensin for labeling cellular receptors” (J Med Chem, 1978).
